Laboratory results taken from ChEMBL document CHEMBL3044591, “Biological Activity of Some 2-Arylamino-4-aryloxyacetyl-2-1, 3, 4-thiadiazolidine Derivatives” (1994).

Experiments:
Assay type in all cases: functional
[1] = system: Aspergillus niger; assay: Fungicidal activity against Aspergillus niger assessed as inhibition at 1000 ppm measured after 96 hr by agar growth technique
[2] = system: Bipolaris oryzae; assay: Fungicidal activity against Bipolaris oryzae assessed as inhibition at 10 ppm measured after 96 hr by agar growth technique
[3] = system: Triticum aestivum; assay: Herbicidal activity against Triticum aestivum (wheat) assessed as killing at 6 kg/ha by post-emergent activity assay
[4] = system: Abutilon theophrasti; assay: Herbicidal activity against Abutilon theophrasti (velvetleaf) assessed as killing at 6 kg/ha by post-emergent activity assay
[5] = system: Bipolaris oryzae; assay: Fungicidal activity against Bipolaris oryzae assessed as inhibition at 100 ppm measured after 96 hr by agar growth technique
[6] = system: Echinochloa crus-galli; assay: Herbicidal activity against Echinochloa crus-galli (barnyard grass) assessed as killing at 6 kg/ha by post-emergent activity assay
[7] = system: Bipolaris oryzae; assay: Fungicidal activity against Bipolaris oryzae assessed as inhibition at 1000 ppm measured after 96 hr by agar growth technique
[8] = system: Aspergillus niger; assay: Fungicidal activity against Aspergillus niger assessed as inhibition at 10 ppm measured after 96 hr by agar growth technique
[9] = system: Setaria viridis; assay: Herbicidal activity against Setaria viridis (green foxtail) assessed as killing at 6 kg/ha by post-emergent activity assay
[10] = system: Aspergillus niger; assay: Fungicidal activity against Aspergillus niger assessed as inhibition at 100 ppm measured after 96 hr by agar growth technique
[11] = system: Sorghum halepense; assay: Herbicidal activity against Sorghum halepense (Johnson grass) assessed as killing at 6 kg/ha by post-emergent activity assay

| SMILES | inhibition at 1000 ppm [1] [%] | inhibition at 10 ppm [2] [%] | Activity [3] [%] | Activity [4] [%] | inhibition at 100 ppm [5] [%] | Activity [6] [%] | inhibition at 1000 ppm [7] [%] | inhibition at 10 ppm [8] [%] | Activity [9] [%] | inhibition at 100 ppm [10] [%] | Activity [11] [%] |
| --- | --- | --- | --- | --- | --- | --- | --- | --- | --- | --- | --- |
| COc1ccc(NC2=NN(C(=O)COc3ccccc3Cl)C(C)(C)S2)cc1 | 65 | 31 | 10 | 100 | 53 | 100 | 60 | 37 | 100 | 56 | 100 |
| Cc1ccc(NC2=NN(C(=O)COc3cccc(C)c3)C(C)(C)S2)cc1 | 75 | 48 | 15 | 30 | 63 | 60 | 71 | 54 | 20 | 68 | 50 |
| Cc1ccc(NC2=NN(C(=O)COc3ccccc3Cl)C(C)(C)S2)cc1 | 63 | 32 | 30 | 50 | 44 | 20 | 56 | 49 | 50 | 52 | 50 |
| Cc1cccc(OCC(=O)N2N=C(Nc3ccc(Cl)cc3)SC2(C)C)c1 | 63 | 38 | 10 | 40 | 47 | 50 | 59 | 48 | 50 | 54 | 60 |
| CC1(C)SC(Nc2ccccc2)=NN1C(=O)COc1ccccc1Cl | 56 | 31 | 20 | 40 | 42 | 60 | 52 | 51 | 50 | 44 | 70 |
| CC1(C)SC(Nc2ccc(Cl)cc2)=NN1C(=O)COc1ccccc1Cl | 62 | 39 | 10 | 40 | 48 | 50 | 58 | 49 | 50 | 50 | 30 |
| CC1(C)SC(Nc2ccccc2)=NN1C(=O)COc1ccc(Cl)cc1 | 78 | 59 | 0 | 40 | 67 | 50 | 76 | 45 | 40 | 69 | 60 |
| COc1ccc(NC2=NN(C(=O)COc3cccc(C)c3)C(c3ccccc3)S2)cc1 (stereo unspecified) | 74 | 50 | 10 | 100 | 65 | 100 | 72 | 51 | 100 | 67 | 100 |
| Cc1ccc(NC2=NN(C(=O)COc3cccc(C)c3)C(c3ccccc3)S2)cc1 (stereo unspecified) | 70 | 46 | 10 | 60 | 61 | 30 | 68 | 47 | 20 | 62 | 50 |
| Cc1cccc(OCC(=O)N2N=C(Nc3ccc(Cl)cc3)SC2c2ccccc2)c1 (stereo unspecified) | 62 | 38 | 15 | 50 | 48 | 60 | 58 | 40 | 50 | 49 | 60 |
| Cc1cccc(OCC(=O)N2N=C(Nc3ccccc3)SC2c2ccccc2)c1 (stereo unspecified) | 67 | 39 | 0 | 60 | 49 | 60 | 61 | 38 | 60 | 54 | 60 |
| COc1ccc(NC2=NN(C(=O)COc3ccccc3Cl)C(c3ccccc3)S2)cc1 (stereo unspecified) | 65 | 44 | 10 | 100 | 58 | 100 | 63 | 44 | 100 | 59 | 90 |
| Cc1ccc(NC2=NN(C(=O)COc3ccccc3Cl)C(c3ccccc3)S2)cc1 (stereo unspecified) | 65 | 39 | 30 | 40 | 50 | 50 | 60 | 43 | 50 | 52 | 60 |
| O=C(COc1ccccc1Cl)N1N=C(Nc2ccc(Cl)cc2)SC1c1ccccc1 (stereo unspecified) | 92 | 78 | 25 | 50 | 80 | 60 | 92 | 78 | 60 | 83 | 40 |
| COc1ccc(NC2=NN(C(=O)COc3cccc(C)c3)C(C)(C)S2)cc1 | 69 | 36 | 10 | 100 | 54 | 100 | 65 | 43 | 100 | 58 | 100 |
| O=C(COc1ccccc1Cl)N1N=C(Nc2ccccc2)SC1c1ccccc1 (stereo unspecified) | 92 | 75 | 20 | 50 | 80 | 50 | 90 | 77 | 50 | 82 | 60 |
